This passage reports IC50, KD and Kd results from article PMC12894981, “Structure-guided screening identifies Tucatinib as dual inhibitor for MCT1/2” (EMBO Reports, 2025).

In experiment [1] the target is T1, MCT2-embigin (Homo sapiens, UniProt O60669).
T1 construct: gene SLC16A7; fusion: embigin C-terminus joined by GGSG linker to MCT2 N-terminus, C-terminal twin-Strep tag; HEK-293F, DDM then GDN, heterodimer; in transport tests expressed as fusion in HEK-293T cells; with Embigin
T1 sequence (O60669 1-478): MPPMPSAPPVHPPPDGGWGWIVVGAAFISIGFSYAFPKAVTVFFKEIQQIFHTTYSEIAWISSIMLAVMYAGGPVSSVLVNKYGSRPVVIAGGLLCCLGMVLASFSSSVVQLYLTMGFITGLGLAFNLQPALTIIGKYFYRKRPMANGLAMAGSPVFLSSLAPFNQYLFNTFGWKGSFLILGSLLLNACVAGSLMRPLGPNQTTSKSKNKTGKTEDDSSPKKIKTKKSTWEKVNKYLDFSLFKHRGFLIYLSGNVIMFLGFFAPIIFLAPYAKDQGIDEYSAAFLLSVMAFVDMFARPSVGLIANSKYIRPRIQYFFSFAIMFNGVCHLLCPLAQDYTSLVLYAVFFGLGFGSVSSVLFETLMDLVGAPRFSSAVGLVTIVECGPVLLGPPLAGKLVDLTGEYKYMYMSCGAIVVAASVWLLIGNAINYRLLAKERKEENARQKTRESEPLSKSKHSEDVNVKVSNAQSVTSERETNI
T1 sequence (Q6PCB8 33-327 partner): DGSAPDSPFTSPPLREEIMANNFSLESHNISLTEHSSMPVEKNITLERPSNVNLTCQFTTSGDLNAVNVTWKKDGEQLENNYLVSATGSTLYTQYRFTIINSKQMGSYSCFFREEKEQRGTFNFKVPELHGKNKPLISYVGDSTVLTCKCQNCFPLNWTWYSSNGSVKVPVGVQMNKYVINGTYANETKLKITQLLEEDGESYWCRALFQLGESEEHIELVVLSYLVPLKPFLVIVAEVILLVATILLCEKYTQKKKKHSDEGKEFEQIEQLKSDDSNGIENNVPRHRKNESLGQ
Description: pyruvate uptake, pyronicSF fluorescence, transfected HEK-293T cells. It counts as cell-based.

The target in experiment [2] is T2, MCT2-embigin (Homo sapiens, UniProt O60669, Y34A).
T2 construct: gene SLC16A7; fusion: embigin C-terminus joined by GGSG linker to MCT2 N-terminus, C-terminal twin-Strep tag; HEK-293F, DDM then GDN, heterodimer; in transport tests expressed as fusion in HEK-293T cells; with Embigin
T2 sequence (O60669 1-478 Y34A): T1 sequence (O60669 1-478) with Y34A
T2 sequence (Q6PCB8 33-327 partner): T1 sequence (Q6PCB8 33-327 partner)
The experiment in a line: bio-layer interferometry, SSA biosensor, […] fit. As to conditions: pH 7.4, 25 °C. In kind it is binding.

The target of experiment [3] is T3, MCT2-embigin (Homo sapiens, UniProt O60669, F262A).
T3 construct: gene SLC16A7; fusion: embigin C-terminus joined by GGSG linker to MCT2 N-terminus, C-terminal twin-Strep tag; HEK-293F, DDM then GDN, heterodimer; in transport tests expressed as fusion in HEK-293T cells; with Embigin
T3 sequence (O60669 1-478 F262A): T1 sequence (O60669 1-478) with F262A
T3 sequence (Q6PCB8 33-327 partner): T1 sequence (Q6PCB8 33-327 partner)
Description: bio-layer interferometry, SSA biosensor, […] fit. It counts as binding. As to conditions: pH 7.4, 25 °C.

The target of experiment [4] is T1, MCT2-embigin. Description: bio-layer interferometry, SSA biosensor, […] fit. It counts as binding. As to conditions: read-out: affinity (KD). (In BLI a coated tip is dipped into the sample, and binding shifts an interference pattern.)
Experiment [5] concerns T4, MCT1-Basigin-2.
T4 construct: gene SLC16A1; fusion MCT1-Basigin-2; expressed in HEK-293T cells with pyronicSF for transport; with Basigin
Description: pyruvate uptake, pyronicSF fluorescence, transfected HEK-293T cells. In kind it is cell-based, Homo sapiens. As to conditions: 5 mM pyruvate; 30 min pre-incubation.

For experiment [6], the target named is T2, MCT2-embigin. Description: bio-layer interferometry, SSA biosensor, […] fit. In kind it is binding.
Experiment [7] addresses T5, MCT2-embigin (Homo sapiens, UniProt O60669, F351A).
T5 construct: gene SLC16A7; fusion: embigin C-terminus joined by GGSG linker to MCT2 N-terminus, C-terminal twin-Strep tag; HEK-293F, DDM then GDN, heterodimer; in transport tests expressed as fusion in HEK-293T cells; with Embigin
T5 sequence (O60669 1-478 F351A): T1 sequence (O60669 1-478) with F351A
T5 sequence (Q6PCB8 33-327 partner): T1 sequence (Q6PCB8 33-327 partner)
Description: bio-layer interferometry, SSA biosensor, […] fit. In kind it is binding.

Experiment [8] concerns the target T1, MCT2-embigin. Description: bio-layer interferometry, SSA biosensor, […] fit.
Experiment [9] deals with T3, MCT2-embigin. Description: bio-layer interferometry, SSA biosensor, […] fit. In kind it is binding.

SMILES strings stand for the structures. Substitutions are numbered along the chain they refer to. Read-outs that look alike come from different tables or passages of the source.

On to `Cc1n[nH]c(C)c1Cc1sc2c(c1C(=O)N1C[C@H](O)CO1)c(=O)n(C)c(=O)n2CC(C)C` [AR-C155858], for which the IC50 (commonly the concentration that inhibits the measured activity by half) in [1] was 0.981 µM. Besides, the KD entry was “The binding kinetics of AR-C155858 bound to MCT2(Y34A)-embigin (A)” in experiment [2] and “MCT2(F262A)-embigin (B)” in experiment [3]. Further, in [4], the Kd (usually the constant that tells how readily two partners part at equilibrium) was found to be 0.6 µM.

On to `Cc1[nH]nc(C(F)(F)F)c1Cc1sc2c(c1C(=O)N1C[C@](C)(O)CO1)c(=O)n(C)c(=O)n2C(C)C` [AZD3965], for which the IC50 in experiment [5] was determined as 1.24 µM.

Take `Cc1cc(Nc2ncnc3ccc(NC4=NC(C)(C)CO4)cc23)ccc1Oc1ccn2ncnc2c1` [Tucatinib]: the Kd is 13.8 µM in experiment [6], 211 µM in experiment [7], 0.6 µM in experiment [8] and 33.2 µM in experiment [9]. Also, the IC50 in experiment [1] came to 2.71 µM; in experiment [5], 2.6 µM.
